Ends that are not written are not given here.
How the values were obtained:
[1] = system: A. baumannii NICD 15283 (C); parameters: key: S - Susceptible; R - Resistant; I – Intermediate; settings: A. baumannii NICD 15283 clinical isolate; ref NICD; cited from earlier work
[2] = system: E. cloacae NICD 16103 (C); parameters: key: S - Susceptible; R - Resistant; I – Intermediate; settings: E. cloacae NICD 16103 clinical isolate; ref NICD; cited from earlier work
E. coli ATCC 700928 = settings: for Modal MIC: E. coli ATCC 700928, cation-adjusted MHB, ~5 x 10^5 CFU/mL, 37°C 20 h, OD600, n = 6; for Selectivity index (HaCat LC50 / MIC): E. coli ATCC 700928 over HaCat cells
Procedure: (§1) Antibacterial activity against a panel of standard laboratory strains and clinical isolates.
(§2) Antimicrobial activity was evaluated against a panel of Gram-negative bacteria maintained by H3D, University of Cape Town, consisting of six laboratory reference strains and two clinical isolates. Briefly, bacterial colonies from an LB agar plate were picked and cultured in cation-adjusted Mueller Hinton broth (MHB) at 37°C with 180 rpm shaking, overnight. Cultures were […]
(§3) back diluted to reach a starting optical density at 600 nm (OD600) of 0.1 and then diluted 100- […]
(§4) media down polypropylene 96-well plates. Inoculum was added at a 1:1 ratio resulting in a […]
(§5) (Suppl. Table S2). Plates were incubated at 37°C for 20 h and the OD600 determined. Minimum inhibition concentrations (MICs) were determined from a minimum of three biological repeats. […]
(§6) the background absorbance.
(§7) Caution! All bacterial work was conducted using appropriate biosafety level 2 (BSL-2) practices.
(§8) Clinical isolates and reference strains were handled in a biosafety cabinet with proper PPE to prevent exposure and contamination.

[3] = system: K. pneumoniae ATCC BAA-1705; settings: for Modal MIC: K. pneumoniae ATCC BAA-1705, cation-adjusted MHB, ~5 x 10^5 CFU/mL, 37°C 20 h, OD600, n = 6; for Selectivity index (HaCat LC50 / MIC): K. pneumoniae ATCC BAA-1705 over HaCat cells
Procedure: as §1, §2, §3, §4, §5, §6, §7, §8

P. aeruginosa PAO1 = settings: for Modal MIC: P. aeruginosa PAO1, cation-adjusted MHB, ~5 x 10^5 CFU/mL, 37°C 20 h, OD600, n = 6; for Selectivity index (HaCat LC50 / MIC): P. aeruginosa PAO1 over HaCat cells
Procedure: as §1, §2, §3, §4, §5, §6, §7, §8

E. coli ATCC 25922 = settings: for Modal MIC: E. coli ATCC 25922, cation-adjusted MHB, ~5 x 10^5 CFU/mL, 37°C 20 h, OD600, triplicate experiments in duplicate (n = 6); for Selectivity index (HaCat LC50 / MIC): E. coli ATCC 25922 over HaCat cells
Procedure: as §1, §2, §3, §4, §5, §6, §7

A. baumannii ATCC 19606 = settings: for Modal MIC: A. baumannii ATCC 19606, cation-adjusted MHB, ~5 x 10^5 CFU/mL, 37°C 20 h, OD600, n = 6; for Selectivity index (HaCat LC50 / MIC): A. baumannii ATCC 19606 over HaCat cells
Procedure: as §1, §2, §3, §4, §5, §6, §7, §8

[4] = system: A. baumannii NICD 15283 (C); settings: for Modal MIC: A. baumannii NICD 15283 clinical isolate, cation-adjusted MHB, ~5 x 10^5 CFU/mL, 37°C 20 h, OD600, n = 6; for Selectivity index (HaCat LC50 / MIC): A. baumannii NICD 15283 clinical isolate over HaCat cells
Procedure: as §1, §2, §3, §4, §5, §6, §7, §8

E. cloacae ATCC 700323 = settings: for Modal MIC: E. cloacae ATCC 700323, cation-adjusted MHB, ~5 x 10^5 CFU/mL, 37°C 20 h, OD600, n = 6; for Selectivity index (HaCat LC50 / MIC): E. cloacae ATCC 700323 over HaCat cells
Procedure: as §1, §2, §3, §4, §5, §6, §7, §8

[5] = system: E. cloacae NICD 16103 (C); settings: for Modal MIC: E. cloacae NICD 16103 clinical isolate, cation-adjusted MHB, ~5 x 10^5 CFU/mL, 37°C 20 h, OD600, n = 6; for Selectivity index (HaCat LC50 / MIC): E. cloacae NICD 16103 clinical isolate over HaCat cells
Procedure: as §1, §2, §3, §4, §5, §6, §7, §8

HaCat cells = experiment: In vitro cytotoxicity screening against epidermal HaCat cells (MTT); settings: 24 h exposure in total (21 h + 3 h MTT), OD570, three independent experiments in duplicate (n = 6)

| Molecule | Antimicrobial susceptibility profile [1] | Antimicrobial susceptibility profile [2] | Modal MIC (E. coli ATCC 700928) [µg/mL] | Modal MIC [3] | Modal MIC (P. aeruginosa PAO1) [µg/mL] | Modal MIC (E. coli ATCC 25922) | Modal MIC (A. baumannii ATCC 19606) [µg/mL] | Modal MIC [4] | Modal MIC (E. cloacae ATCC 700323) | Modal MIC [5] | other results |
| --- | --- | --- | --- | --- | --- | --- | --- | --- | --- | --- | --- |
| NCC[C@H](O)C(=O)N[C@@H]1C[C@H](N)[C@@H](O[C@H]2O[C@H](CN)[C@@H](O)[C@H](O)[C@H]2O)[C@H](O)[C@H]1O[C@H]1O[C@H](CO)[C@@H](O)[C@H](N)[C@H]1O [Amikacin] | R | S | – | – | – | – | – | – | – | – | – |
| O=C(O)c1cn(C2CC2)c2cc(N3CCNCC3)c(F)cc2c1=O [Ciprofloxacin, reference compound] | – | – | 0.25 | > 32 µg/mL | 0.5 | – | – | – | – | – | – |
| CNC(C)C1CCC(N)C(OC2C(N)CC(N)C(OC3OCC(C)(O)C(NC)C3O)C2O)O1 (stereo not drawn) [Gentamicin, reference compound] | R | R | 0.5 | 1/2 | 4 | 0.5 µg/mL | 32 | 16/32 | 2 µg/mL | > 32 µg/mL | – |
| C[C@@H](O)[C@H]1C(=O)N2C(C(=O)O)=C(SCCN=CN)C[C@H]12 [Imipenem] | R | R | – | – | – | – | – | – | – | – | – |
| CC[C@H](C)[C@H](NC(=O)CN)C(=O)NCC(=O)N[C@@H](C)C(=O)N[C@H](C(=O)N[C@@H](CC(C)C)C(=O)N[C@@H](CCCCN)C(=O)N[C@H](C(=O)N[C@@H](CC(C)C)C(=O)N[C@H](C(=O)N[C@H](C(=O)NCC(=O)N[C@@H](CC(C)C)C(=O)N1CCC[C@H]1C(=O)N[C@@H](C)C(=O)N[C@@H](CC(C)C)C(=O)N[C@H](C(=O)N[C@@H](CO)C(=O)N[C@@H](Cc1c[nH]c2ccccc12)C(=O)N[C@H](C(=O)N[C@@H](CCCCN)C(=O)N[C@@H](CCCNC(=N)N)C(=O)N[C@@H](CCCCN)C(=O)N[C@@H](CCCNC(=N)N)C(=O)N[C@@H](CCC(N)=O)C(=O)N[C@@H](CCC(N)=O)C(N)=O)[C@@H](C)CC)[C@@H](C)CC)[C@@H](C)O)[C@@H](C)O)C(C)C)C(C)C [Melittin, reference compound] | – | – | 4 | – | 2 | – | – | 4 µg/mL | – | 8 µg/mL | – |
| C[C@@H](O)[C@H]1C(=O)N2C(C(=O)O)=C(S[C@@H]3CN[C@H](C(=O)N(C)C)C3)[C@H](C)[C@H]12 [Meropenem, reference compound] | R | R | – | – | – | – | – | 32 µg/mL | – | 16 µg/mL | – |
| CC1(C)[C@H](C(=O)O)N2C(=O)C[C@H]2S1(=O)=O [Sulbactam] | I | R | – | – | – | – | – | – | – | – | – |
| CN(C)[C@@H]1C(O)=C(C(N)=O)C(=O)[C@@]2(O)C(O)=C3C(=O)c4c(O)cccc4[C@@](C)(O)[C@H]3C[C@@H]12 [Tetracycline] | R | R | – | – | – | – | – | – | – | – | – |
| NC[C@H]1O[C@H](O[C@H]2[C@H](O)[C@@H](O[C@H]3O[C@H](CO)[C@@H](O)[C@H](N)[C@H]3O)[C@H](N)C[C@@H]2N)[C@H](N)C[C@@H]1O [Tobramycin] | R | R | – | – | – | – | – | – | – | – | – |
| GKVWKWIKSTAKKLWN-NH2 [Opis16aD5K] | – | – | – | 16 µg/mL | 8 | 16 µg/mL | 8 | 8 µg/mL | 16 µg/mL | 8 µg/mL | Selectivity index (HaCat LC50 / MIC) (A. baumannii ATCC 19606): 18.5; Selectivity index (HaCat LC50 / MIC) [4]: 18.5; Selectivity index (HaCat LC50 / MIC) (E. cloacae ATCC 700323): 9.27; Selectivity index (HaCat LC50 / MIC) [5]: 18.5; Selectivity index (HaCat LC50 / MIC) [3]: 9.27; Selectivity index (HaCat LC50 / MIC) (P. aeruginosa PAO1): 18.5; HaCat toxicity LC50 + SD (HaCat cells): 148 ± 6 µg/mL |
| GRVWRWIKSTAKKLWN-NH2 [Opis16aNterKR] | – | – | 4 | 16 µg/mL | 4 | 8 (8×) μg/mL | 4 | 8 µg/mL | 16 µg/mL | 8 µg/mL | Selectivity index (HaCat LC50 / MIC) (E. coli ATCC 25922): 17.3; Selectivity index (HaCat LC50 / MIC) (A. baumannii ATCC 19606): 34.6; Selectivity index (HaCat LC50 / MIC) [4]: 17.3; Selectivity index (HaCat LC50 / MIC) (E. cloacae ATCC 700323): 8.64; Selectivity index (HaCat LC50 / MIC) [5]: 17.3; Selectivity index (HaCat LC50 / MIC) (E. coli ATCC 700928): 34.6; Selectivity index (HaCat LC50 / MIC) [3]: 8.64; Selectivity index (HaCat LC50 / MIC) (P. aeruginosa PAO1): 34.6; HaCat toxicity LC50 + SD (HaCat cells): 138 ± 14 µg/mL |
| GRVWRWIRSTARRLWN-NH2 [Opis16aKR] | – | – | 4 | 16 µg/mL | 4 | 8 (8×) μg/mL | 4 | 8 µg/mL | 8 (8×) μg/mL | 4 (4×) μg/mL | Selectivity index (HaCat LC50 / MIC) (E. coli ATCC 25922): 16.4; Selectivity index (HaCat LC50 / MIC) (A. baumannii ATCC 19606): 32.9; Selectivity index (HaCat LC50 / MIC) [4]: 16.4; Selectivity index (HaCat LC50 / MIC) [5]: 32.9; Selectivity index (HaCat LC50 / MIC) (E. coli ATCC 700928): 32.9; Selectivity index (HaCat LC50 / MIC) [3]: 8.21; Selectivity index (HaCat LC50 / MIC) (P. aeruginosa PAO1): 32.9; HaCat toxicity LC50 + SD (HaCat cells): 131 ± 5 µg/mL |
| Polymyxin B [reference compound] | – | – | 0.5 | 0.5 µg/mL | – | 0.25 µg/mL | 1 | 1 µg/mL | 0.25 µg/mL | – | – |

From PMC12169475 (ACS Medicinal Chemistry Letters, 2025)
